The test system of the assay is P388 leukemia ip, CD2F1 mice, survival T/C. The assay can be described thus: NCI In Vivo Anticancer Drug Screen. Data for tumor model P388 Leukemia (intraperitoneal) in CD2F1 (CDF1) mice. The following applies: endpoint: median survival time, higher = longer survival. In a few lines: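 Mice carrying the transplanted tumor received test compound or vehicle. Survival was recorded in each group, and the value is the treated-group measurement divided by that of the vehicle-treated control group.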

Setting [1] is: dose: 60.0 mg/kg/injection, schedule: Q01DX005 (ip), vehicle: saline with Tween-80.
[2] abbreviates: dose: 120.0 mg/kg/injection, schedule: Q01DX005 (ip), vehicle: saline with Tween-80.
The mark [3] stands for this setting: dose: 240.0 mg/kg/injection, schedule: Q01DX005 (ip), vehicle: saline with Tween-80.
Setting [4] is: dose: 50.0 mg/kg/injection, schedule: Q01DX005 (ip), vehicle: saline with Tween-80.
The mark [5] stands for this setting: dose: 100.0 mg/kg/injection, schedule: Q01DX005 (ip), vehicle: saline with Tween-80.
The mark [6] stands for this setting: dose: 50.0 mg/kg/injection, schedule: Q01DX001 (ip), vehicle: saline.
Where [7] appears, read: dose: 100.0 mg/kg/injection, schedule: Q01DX001 (ip), vehicle: saline.
Where [8] appears, read: dose: 200.0 mg/kg/injection, schedule: Q01DX001 (ip), vehicle: saline.
Setting [9] is: dose: 6.0 mg/kg/injection, schedule: Q01DX009 (ip), vehicle: saline.

Where “and” joins values, the source holds several entries; their conditions need not be identical. Equal values may be shown once. Toxic doses and inconclusive results are not listed.

As for `COc1ccc(/C=N/NC(=O)c2ccc(Cl)cc2Cl)cc1OC`, the T/C by setting is: under setting [1], 96 % of control; under setting [2], 96 % of control; under setting [3], 92 % of control.

Turning to `CN(C)N1C(=O)c2c(Cl)c(Cl)c(Cl)c(Cl)c2C1=O`, the T/C is 94 % of control under setting [4] and 89 % of control under setting [5].

`COC(=O)c1[nH]c(=O)c(C#N)c(C(=O)OC)c1C(=O)/C=C/c1ccccc1`: the T/C is, setting by setting: under setting [1], 100 % of control; under setting [2], 96 % of control; under setting [3], 90 % of control.

Consider `Cc1cc(N(CCCl)CCCl)ccc1N=Nc1ccccc1C(=O)[O-].Cc1cc(N(CCCl)CCCl)ccc1N=Nc1ccccc1C(=O)[O-].[Cu+2]`, for which the T/C is, setting by setting: (dose: 12.0 mg/kg/injection, schedule: Q04DX003 (ip), vehicle: saline with Tween-80) 150 % of control; (dose: 12.5 mg/kg/injection, schedule: Q01DX009 (ip), vehicle: saline with Tween-80) 209 % of control; (dose: 12.5 mg/kg/injection, schedule: Q04DX003 (ip), vehicle: saline with Tween-80) 154 % of control; (dose: 25.0 mg/kg/injection, schedule: Q01DX009 (ip), vehicle: saline with Tween-80) 95 % of control; (dose: 25.0 mg/kg/injection, schedule: Q04DX003 (ip), vehicle: saline with Tween-80) 195 % of control; (dose: 50.0 mg/kg/injection, schedule: Q04DX003 (ip), vehicle: saline with Tween-80) 95 % of control. The T/C is, setting by setting: (dose: 375.0 micrograms/kg/injection, schedule: Q04DX003 (ip), vehicle: saline) 109 % of control; (dose: 750.0 micrograms/kg/injection, schedule: Q04DX003 (ip), vehicle: saline) 109 % of control; (dose: 1500.0 micrograms/kg/injection, schedule: Q04DX003 (ip), vehicle: saline) 104 % of control.

As for `O=C(O)CCC1NC(=O)NC1=O` (configuration not stated), the T/C reads like this: under setting [6], 100 % of control; under setting [7], 103 % of control; under setting [8], 104 % of control; (dose: 400.0 mg/kg/injection, schedule: Q01DX001 (ip), vehicle: saline) 94 % of control.

For the compound `Cc1ccc(N2C(=O)CC3(CCCC3)C2=O)cc1[N+](=O)[O-]`, the T/C (dose: 100.0 mg/kg/injection, schedule: Q04DX002 (ip), vehicle: Klucel (hydroxypropylcellulose) (HPC)) is 106 % of control; the T/C (dose: 200.0 mg/kg/injection, schedule: Q04DX002 (ip), vehicle: Klucel (hydroxypropylcellulose) (HPC)) was 105 % of control; the T/C (dose: 400.0 mg/kg/injection, schedule: Q04DX002 (ip), vehicle: Klucel (hydroxypropylcellulose) (HPC)) was 97 % of control.

Consider `CC[C@]12CN3CCc4c([nH]c5ccccc45)[C@@](C(=O)OC)(c4cc5c(cc4OC)N(C)[C@H]4[C@@](O)(C(=O)OC)[C@H](OC(C)=O)[C@]6(CC)C=CCN7CC[C@]54[C@@H]76)CC(C3)[C@H]1O2` (some centres not stated), for which the T/C (dose: 0.05 mg/kg/injection, schedule: Q01DX009 (ip), vehicle: saline) was 101 % of control; the T/C (dose: 0.1 mg/kg/injection, schedule: Q01DX009 (ip), vehicle: saline) was 104 % of control; the T/C (dose: 0.2 mg/kg/injection, schedule: Q01DX009 (ip), vehicle: saline) is 104 % of control; the T/C (dose: 0.4 mg/kg/injection, schedule: Q01DX009 (ip), vehicle: saline) was 103 % of control; the T/C (dose: 0.5 mg/kg/injection, schedule: Q01DX001 (ip), vehicle: water) is 104 % of control; the T/C (dose: 0.75 mg/kg/injection, schedule: Q01DX009 (ip), vehicle: saline) is 114 % of control. For the same compound, the T/C runs as follows: (dose: 0.8 mg/kg/injection, schedule: Q01DX009 (ip), vehicle: saline) 107 % of control; (dose: 1.0 mg/kg/injection, schedule: Q01DX001 (ip), vehicle: water) 95 % of control; (dose: 1.6 mg/kg/injection, schedule: Q01DX009 (ip), vehicle: saline) 113 % of control; (dose: 2.0 mg/kg/injection, schedule: Q01DX001 (ip), vehicle: water) 108 % of control; (dose: 3.0 mg/kg/injection, schedule: Q01DX009 (ip), vehicle: saline) 117 % of control; (dose: 3.2 mg/kg/injection, schedule: Q01DX009 (ip), vehicle: saline) 110 % of control. The T/C is 116 % of control (dose: 4.0 mg/kg/injection, schedule: Q01DX001 (ip), vehicle: water); 173 % of control (dose: 6.0 mg/kg/injection, schedule: Q01DX009 (ip), vehicle: saline sonified); 156 % of control and 160 % of control under setting [9]; 120 % of control (dose: 6.4 mg/kg/injection, schedule: Q01DX009 (ip), vehicle: saline); 122 % of control (dose: 8.0 mg/kg/injection, schedule: Q01DX001 (ip), vehicle: water); 121 % of control (dose: 12.0 mg/kg/injection, schedule: Q01DX009 (ip), vehicle: saline sonified). Further, the T/C is, setting by setting: (dose: 12.0 mg/kg/injection, schedule: Q01DX009 (ip), vehicle: saline) 176 % of control and 220 % of control; (dose: 24.0 mg/kg/injection, schedule: Q01DX009 (ip), vehicle: saline) 117 % of control.

With `O=P(C(=S)Nc1ccccc1Cl)(c1ccccc1)c1ccccc1`, the T/C (dose: 50.0 mg/kg/injection, schedule: Q01DX009 (ip), vehicle: Klucel (hydroxypropylcellulose) (HPC)) was 100 % of control; the T/C (dose: 100.0 mg/kg/injection, schedule: Q01DX009 (ip), vehicle: Klucel (hydroxypropylcellulose) (HPC)) was 91 % of control; the T/C (dose: 200.0 mg/kg/injection, schedule: Q01DX009 (ip), vehicle: Klucel (hydroxypropylcellulose) (HPC)) was 90 % of control.

Turning to `O=c1[nH]c(=O)c2nc(-c3ccccn3)cnc2[nH]1`, the T/C was 101 % of control under setting [6], 90 % of control under setting [7] and 92 % of control under setting [8].

On to `O=C1OCCOCCOCCOCCOCCOCCOC(=O)c2cccc1n2`, for which the T/C is 100 % of control (dose: 100.0 mg/kg/injection, schedule: Q04DX003 (ip), vehicle: Klucel (hydroxypropylcellulose) (HPC)); 100 % of control (dose: 200.0 mg/kg/injection, schedule: Q04DX003 (ip), vehicle: Klucel (hydroxypropylcellulose) (HPC)); 100 % of control (dose: 400.0 mg/kg/injection, schedule: Q04DX003 (ip), vehicle: Klucel (hydroxypropylcellulose) (HPC)).

For `CCc1cccc(C(C)C)c1NC1=C([n+]2ccc(C)cc2)C(=O)c2ccccc2C1=O`, the T/C is 117 % of control under setting [1], 106 % of control under setting [2] and 119 % of control under setting [3].

As to `CC1(C)NC(=O)NC(=O)C1Br` (configuration not stated), the T/C under setting [4] is 99 % of control; the T/C under setting [5] was 102 % of control; the T/C (dose: 200.0 mg/kg/injection, schedule: Q01DX005 (ip), vehicle: saline with Tween-80) is 103 % of control.

For `CSc1nnc(CCC(=O)Nc2cc(Cl)ccc2Cl)o1`, the T/C was 109 % of control under setting [1], 100 % of control under setting [2] and 97 % of control under setting [3].

As for `CC[C@]12CN3CCc4c([nH]c5ccccc45)[C@@](C(=O)OC)(c4cc5c(cc4OC)N(C=O)[C@H]4[C@@](O)(C(=O)OC)[C@H](OC(C)=O)[C@]6(CC)C=CCN7CC[C@]54[C@@H]76)C[C@H](C3)[C@H]1O2`, the T/C was 123 % of control (dose: 1.0 mg/kg/injection, schedule: Q01DX009 (ip), vehicle: saline); 166 % of control (dose: 4.0 mg/kg/injection, schedule: Q01DX009 (ip), vehicle: saline); 175 % of control under setting [9].

For `CS/C(=C\c1ccc(C(=O)c2ccc(C)cc2)n1C)S(C)=O` (configuration not stated), the T/C (dose: 30.0 mg/kg/injection, schedule: Q01DX005 (ip), vehicle: Klucel (hydroxypropylcellulose) (HPC)) is 94 % of control; the T/C (dose: 60.0 mg/kg/injection, schedule: Q01DX005 (ip), vehicle: Klucel (hydroxypropylcellulose) (HPC)) is 91 % of control and 94 % of control; the T/C (dose: 120.0 mg/kg/injection, schedule: Q01DX005 (ip), vehicle: Klucel (hydroxypropylcellulose) (HPC)) was 92 % of control; the T/C (dose: 240.0 mg/kg/injection, schedule: Q01DX005 (ip), vehicle: Klucel (hydroxypropylcellulose) (HPC)) was 88 % of control.

In the case of `CCOC(=O)C1CCc2c(OC)c(C)cc(C)c2C1=O` (configuration not stated), the T/C reads like this: (dose: 50.0 mg/kg/injection, schedule: Q01DX005 (ip), vehicle: Klucel (hydroxypropylcellulose) (HPC)) 103 % of control; (dose: 100.0 mg/kg/injection, schedule: Q01DX005 (ip), vehicle: Klucel (hydroxypropylcellulose) (HPC)) 103 % of control; (dose: 200.0 mg/kg/injection, schedule: Q01DX005 (ip), vehicle: Klucel (hydroxypropylcellulose) (HPC)) 95 % of control.

Values taken from PubChem BioAssay AID330 (DTP/NCI, 2004).
